Patent US11744824B2, “2-amino-3-carbonyl imidazopyridine and pyrazolopyridine compounds” (1ST Biotherapeutics, Inc., priority 2020, dated 2023)

How the values were obtained:
[1] = biological target: GST-tagged recombinant human RIP2 (Homo sapiens (Human), UniProt O43353); assay: RIP2 Kinase Assay (ADP-Glo); type: biochemical; conditions: in vitro kinase activity, ATP 25 μM
Protocol: GST-tagged recombinant human RIP2 (25 ng) is incubated with 5 μL of compounds (0.5% DMSO), 5 μL of MBP (0.5 μg/μl) and 5 μL of ATP (25 μM) in buffer (40 mM Tris, 7.5; 20 mM MgCl2; 0.1 mg/ml BSA; 50 μM DTT). The assay was started by incubating the reaction mixture in a 96-well plate at 30° C. for 60 minutes. After the incubation, 25 μL ADP-Glo reagent was added, and the reaction was incubated at 30° C. for 40 minutes to stop the reaction and degrade residual ATP. The ADP product was then converted to ATP by adding 50 μL per well of detection reagent. Luminescence was detected after 30 minutes room temperature incubation with the Molecular device I3X plate reader. The IC50 values were calculated from a series of percent inhibition values determined at a range of inhibitor concentration using software routines as implemented in the GraphPad Prism 7 software and SigmaPlot 13.0.

[2] = system: IL-6 secretion in BV-2 mouse microglia cells; assay: IL-6 Secretion in BV-2 Cell (L18-MDP stimulated, ELISA); type: cell-based; conditions: BV-2 cells, 10 μg/ml L18-MDP, 24 hr
Protocol: IL-6 Secretion in BV-2 Cell
BV-2 mouse microglia cells were kindly provided from Dr. Bae in Korea Institute of Science and Technology (KIST). BV-2 cells were thawed and suspended in Dulbecco's modified eagle medium (DMEM) supplemented with 10% fetal bovine serum (FBS) and 1% Penicillin/Streptomycin. Cells were seeded into 96 well plates at 2×10^4 cells/well and allowed to attach for 24 hr. On the day of the experiment, various concentration of FB compounds was treated, and cells were stimulated with 10 μg/ml L18-MDP. After 24 hr incubation, supernatant was collected for cytokine assay.
Absorbance at 450 nm was measured using SpectraMax i3X microplate reader (Molecular Device). Values of media-only wells were subtracted and % inhibition for each compound concentration relative to the DMSO/L18-MDP-treated controls (100%) was calculated. The IC50 values were calculated from a series of percent activity values using software as implemented in the GraphPad Prism 7 software and SigmaPlot 13.0.

[3] = biological target: His-tagged recombinant human ABL1 (Homo sapiens (Human), UniProt P00519); assay: c-Abl Kinase Assay (ADP-Glo); type: biochemical; conditions: in vitro kinase activity, ATP 25 μM
Protocol: ADP-Glo assay kit was purchased from Promega. Magnesium chloride (MgCl2), bovine serum albumin (BSA), ethylene glycol-bis(β-aminoethyl ether)-N,N,N′,N′-tetraacetic acid (EGTA), tween-20, 1,4-dithiothreitol (DTT) and dimethyl sulfoxide (DMSO) were purchased from Sigma-Aldrich. HEPES buffer was purchased from Gibco. ABL1 kinase and Abltide were purchased from Signalchem.
c-Abl kinase activity was measured by Promega's ADP-Glo™ Assay. In this assay, His-tagged recombinant human ABL1 (0.25 ng/μl) is incubated with 5 μL of compounds (0.5% DMSO), 5 μL of Abltide (0.01 μg/μl) and 5 μL of ATP (25 μM) in buffer (50 mM HEPES, 7.5; 10 mM MgCl2; 1 mM EGTA; 0.05% BSA; 0.01% Tween-20; 2 mM DTT). The assay was started by incubating the reaction mixture in a 96-well plate at 30° C. for 30 min. After the incubation, 25 μL ADP-Glo reagent was added and the reaction was incubated at room temperature for 40-min to stop the reaction and degrade residual ATP. The ADP product was then converted to ATP by adding 50 μL per well of detection reagent. Luminescence was detected after 30-min room temperature incubation with the Molecular device I3X plate reader. The IC50 values were calculated from a series of percent inhibition values determined at a range of inhibitor concentration using software routines as implemented in the GraphPad Prism 7 software and Sigma Plot 13.0.

Sequence of His-tagged recombinant human ABL1 (P00519 whole entry): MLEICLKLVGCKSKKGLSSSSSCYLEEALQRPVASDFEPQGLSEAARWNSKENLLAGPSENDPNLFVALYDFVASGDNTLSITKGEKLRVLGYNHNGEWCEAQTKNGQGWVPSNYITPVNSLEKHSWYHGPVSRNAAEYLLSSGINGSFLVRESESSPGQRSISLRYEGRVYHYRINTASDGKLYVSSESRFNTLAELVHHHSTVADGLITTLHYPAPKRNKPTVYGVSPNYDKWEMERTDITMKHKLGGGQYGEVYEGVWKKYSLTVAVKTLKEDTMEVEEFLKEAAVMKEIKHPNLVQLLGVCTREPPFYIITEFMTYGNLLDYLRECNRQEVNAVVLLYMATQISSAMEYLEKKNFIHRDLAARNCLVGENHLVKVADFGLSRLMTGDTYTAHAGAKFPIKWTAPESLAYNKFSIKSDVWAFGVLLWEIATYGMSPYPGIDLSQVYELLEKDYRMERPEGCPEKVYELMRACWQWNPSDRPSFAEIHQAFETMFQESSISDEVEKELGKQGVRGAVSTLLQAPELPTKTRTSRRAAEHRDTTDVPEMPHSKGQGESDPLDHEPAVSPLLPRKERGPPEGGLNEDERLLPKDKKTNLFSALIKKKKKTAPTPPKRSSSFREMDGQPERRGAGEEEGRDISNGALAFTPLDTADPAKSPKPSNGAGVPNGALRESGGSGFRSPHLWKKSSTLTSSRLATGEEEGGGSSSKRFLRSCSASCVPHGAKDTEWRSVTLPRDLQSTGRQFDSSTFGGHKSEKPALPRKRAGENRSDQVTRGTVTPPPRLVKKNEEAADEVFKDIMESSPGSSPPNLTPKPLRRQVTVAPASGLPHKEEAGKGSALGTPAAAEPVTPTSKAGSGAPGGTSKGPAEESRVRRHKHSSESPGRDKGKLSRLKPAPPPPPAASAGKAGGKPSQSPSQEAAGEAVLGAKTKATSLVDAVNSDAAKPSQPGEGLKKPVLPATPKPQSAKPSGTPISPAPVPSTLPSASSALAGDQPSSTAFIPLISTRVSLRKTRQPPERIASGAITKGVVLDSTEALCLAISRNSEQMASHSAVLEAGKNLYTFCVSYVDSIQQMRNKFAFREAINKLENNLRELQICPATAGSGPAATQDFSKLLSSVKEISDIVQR
Sequence of GST-tagged recombinant human RIP2 (O43353 whole entry): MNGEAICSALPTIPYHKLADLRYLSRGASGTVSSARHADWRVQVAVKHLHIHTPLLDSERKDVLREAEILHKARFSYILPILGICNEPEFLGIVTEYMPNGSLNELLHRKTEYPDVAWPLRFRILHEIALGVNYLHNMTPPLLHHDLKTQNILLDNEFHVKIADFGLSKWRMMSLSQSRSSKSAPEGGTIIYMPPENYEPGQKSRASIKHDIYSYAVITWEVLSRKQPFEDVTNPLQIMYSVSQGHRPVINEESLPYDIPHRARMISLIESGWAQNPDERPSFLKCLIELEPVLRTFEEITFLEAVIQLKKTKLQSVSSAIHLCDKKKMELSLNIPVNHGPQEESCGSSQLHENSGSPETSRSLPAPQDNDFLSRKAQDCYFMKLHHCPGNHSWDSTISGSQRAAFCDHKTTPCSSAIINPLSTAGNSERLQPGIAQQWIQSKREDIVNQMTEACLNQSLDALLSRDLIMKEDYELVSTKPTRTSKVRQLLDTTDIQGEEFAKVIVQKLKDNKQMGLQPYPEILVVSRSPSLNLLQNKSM

Row | SMILES | IC50 [1] | IC50 [2] | IC50 [3]
1 | Cc1c(F)cccc1-c1ccc2nc(N)c(C(=O)[C@@H]3C[C@@H]3F)n2c1 [Example 5] | 0.001 to 0.1 µM | 0.501 to 1 µM | 0.001 to 0.1 µM
2 | Cc1c(-c2ccc3nc(N)c(C(=O)[C@@H]4C[C@@H]4F)n3c2)cnc2[nH]ccc12 [Example 40] | 0.001 to 0.1 µM | 0.101 to 0.5 µM | 0.001 to 0.1 µM
3 | Nc1nc2ccc(-c3ccc4[nH]ccc4c3)cn2c1C(=O)[C@@H]1C[C@@H]1F [Example 51] | 0.001 to 0.1 µM | 0.101 to 0.5 µM | 0.001 to 0.1 µM
4 | Nc1nc2ccc(-c3cccc4[nH]ccc34)cn2c1C(=O)[C@@H]1C[C@@H]1F [Example 57] | 0.001 to 0.1 µM | 0.101 to 0.5 µM | 0.001 to 0.1 µM
5 | Cc1c(F)cc2[nH]ncc2c1-c1ccc2nc(N)c(C(=O)[C@@H]3C[C@@H]3F)n2c1 [Example 60] | 0.001 to 0.1 µM | 0.001 to 0.1 µM | 0.101 to 0.5 µM
6 | Nc1nc2ccc(-c3c(Cl)c(F)cc4[nH]ncc34)cn2c1C(=O)[C@@H]1C[C@@H]1F [Example 64] | 0.001 to 0.1 µM | 0.101 to 0.5 µM | –
7 | CN(C)c1c(F)c(Cl)c(-c2ccc3nc(N)c(C(=O)[C@@H]4C[C@@H]4F)n3c2)c2cn[nH]c12 [Example 65] | > 1 µM | > 1 µM | –
8 | Nc1nc2ccc(-c3ccc4[nH]ccc4c3)cn2c1C(=O)c1ccccn1 [Example 67] | 0.001 to 0.1 µM | 0.501 to 1 µM | –
9 | Nc1nc2ccc(-c3cnc4[nH]ccc4c3)cn2c1C(=O)c1ccccn1 [Example 68] | 0.001 to 0.1 µM | 0.101 to 0.5 µM | –
10 | Nc1nc2ccc(-c3cnc4[nH]ccc4c3F)cn2c1C(=O)[C@@H]1C[C@@H]1F [Example 69] | 0.001 to 0.1 µM | 0.501 to 1 µM | –
11 | Nc1nc2ccc(-c3ccc4[nH]ccc4c3Cl)cn2c1C(=O)[C@@H]1C[C@@H]1F [Example 73] | 0.001 to 0.1 µM | 0.101 to 0.5 µM | –
12 | Cc1c(-c2ccc3nc(N)c(C(=O)c4ccccn4)n3c2)cnc2[nH]ccc12 [Example 74] | 0.001 to 0.1 µM | 0.101 to 0.5 µM | –
13 | Nc1nc2ccc(-c3cnc4[nH]ccc4c3Cl)cn2c1C(=O)c1ccccn1 [Example 75] | 0.001 to 0.1 µM | 0.501 to 1 µM | –
14 | Nc1nc2ccc(-c3cnc4[nH]ccc4c3)cn2c1C(=O)c1ncccn1 [Example 79] | 0.001 to 0.1 µM | > 1 µM | –
15 | Cc1c(-c2ccc3nc(N)c(C(=O)C4CNC4)n3c2)cnc2[nH]ccc12 [Example 82] | 0.001 to 0.1 µM | > 1 µM | –
16 | Nc1nc2ccc(-c3cnc4[nH]ccc4c3Cl)cn2c1C(=O)C1CNC1 [Example 83] | 0.001 to 0.1 µM | > 1 µM | –
17 | Cc1c(-c2ccc3nc(N)c(C(=O)c4ccncn4)n3c2)cnc2[nH]ccc12 [Example 84] | 0.001 to 0.1 µM | 0.501 to 1 µM | –

Row | SMILES | IC50 [1] | IC50 [2] | IC50 [3]
18 | Cc1c(-c2ccc3nc(N)c(C(=O)c4ncccn4)n3c2)cnc2[nH]ccc12 [Example 85] | 0.001 to 0.1 µM | 0.501 to 1 µM | –
19 | Nc1nc2ccc(-c3cnc4[nH]ccc4c3)cn2c1C(=O)C1CNC1 [Example 86] | 0.001 to 0.1 µM | > 1 µM | –
20 | Cc1c(-c2ccc3nc(N)c(C(=O)[C@@H]4C[C@@H]4F)n3c2)ccc2[nH]ccc12 [Example 89, (2-amino-6-(4-methyl-1H-indol-5-yl)imidazo[1,2-a]pyridin-3-yl)((1S,2S)-2-fluorocyclopropyl)methanone] | 0.001 to 0.1 µM | 0.101 to 0.5 µM | 0.001 to 0.1 µM
21 | Cc1c(-c2ccc3nc(N)c(C(=O)[C@@H]4C[C@@H]4F)n3c2)ccc2[nH]ncc12 [Example 90] | 0.001 to 0.1 µM | 0.501 to 1 µM | –
22 | Cc1c(-c2ccc3nc(N)c(C(=O)C4CCNC4)n3c2)cnc2[nH]ccc12 (stereo not drawn) [Example 94] | 0.001 to 0.1 µM | > 1 µM | –
23 | Nc1nc2ccc(-c3cnc4[nH]ccc4c3Cl)cn2c1C(=O)C1CCNC1 (stereo not drawn) [Example 95] | 0.001 to 0.1 µM | > 1 µM | –
24 | Cc1ccc2[nH]ccc2c1-c1ccc2nc(N)c(C(=O)[C@@H]3C[C@@H]3F)n2c1 [Example 100] | 0.001 to 0.1 µM | 0.101 to 0.5 µM | –
25 | Nc1nc2ccc(-c3c(F)ccc4[nH]ccc34)cn2c1C(=O)[C@@H]1C[C@@H]1F [Example 101] | 0.001 to 0.1 µM | 0.501 to 1 µM | –
26 | Nc1nc2ccc(-c3ccnc4[nH]ccc34)cn2c1C(=O)[C@@H]1C[C@@H]1F [Example 104] | 0.001 to 0.1 µM | 0.101 to 0.5 µM | 0.001 to 0.1 µM
27 | Nc1nc2ccc(-c3c[nH]c4ccccc34)cn2c1C(=O)[C@@H]1C[C@@H]1F [Example 105] | 0.001 to 0.1 µM | 0.101 to 0.5 µM | 0.001 to 0.1 µM
28 | Nc1nc2ccc(-c3c[nH]c4ncccc34)cn2c1C(=O)[C@@H]1C[C@@H]1F [Example 110] | 0.001 to 0.1 µM | 0.501 to 1 µM | –
29 | Nc1nc2ccc(-c3cc(F)cc4[nH]ccc34)cn2c1C(=O)[C@@H]1C[C@@H]1F [Example 113] | 0.001 to 0.1 µM | 0.101 to 0.5 µM | 0.001 to 0.1 µM
30 | Cc1c(F)cc2[nH]ccc2c1-c1ccc2nc(N)c(C(=O)[C@@H]3C[C@@H]3F)n2c1 [Example 114] | 0.001 to 0.1 µM | 0.101 to 0.5 µM | 0.001 to 0.1 µM
31 | Nc1nc2ccc(-c3ccnc4ccccc34)cn2c1C(=O)[C@@H]1C[C@@H]1F [Example 115] | 0.001 to 0.1 µM | 0.101 to 0.5 µM | –
32 | Nc1nn2ccc(-c3cccc4[nH]ccc34)cc2c1C(=O)C1CC1 [Example 152] | 0.001 to 0.1 µM | 0.101 to 0.5 µM | –
33 | Cc1c(F)cc2[nH]ncc2c1-c1ccn2nc(N)c(C(=O)C3CC3)c2c1 [Example 153, (2-amino-5-(6-fluoro-5-methyl-1H-indazol-4-yl)pyrazolo[1,5-a]pyridin-3-yl)(cyclopropyl)methanone] | 0.001 to 0.1 µM | 0.501 to 1 µM | –
34 | Cc1c(F)cccc1-c1ccn2nc(N)c(C(=O)C3CC3)c2c1 [Example 154] | 0.001 to 0.1 µM | > 1 µM | –
